From US20250262140A1, “Compositions and Method of Use for Hair Straightening and Shaping” (Olaplex, Inc., priority 2020, published 2025) come the findings set out here.

Experiment [1] in a line: Peptide stability to shampoo washes, fluorescence of dye-labeled peptide on hair (Example 9). The conditions noted are these: Alexa Fluor 647 labeled peptide 1 mg/mL; virgin (FIG. 9a) and bleached (FIG. 9b) hair. Format: binding. The procedure: To separate solutions of 500 μL of DI water was added 1 mg of one of the peptides corresponding to SEQ ID NOs. 1 and 2-17. Then, a solution of 84 mg of sodium bicarbonate in 1 mL of DI water was prepared, and 12 μL of this solution was added to each peptide solution. Immediately prior to conjugation, 5 mg of Alexa Fluor 647 NHS ester (Thermo Fisher Scientific) dye molecule was dissolved in 500 μL of DMSO, and 15 μL of this solution was added to each peptide solution. After the dye was added, the solution was incubated at 4° C. in the dark for 16 hours. Removal of unbound dye molecules was carried out using a PD MiniTrap G-10 column (Cytiva) using DI water as the elutant. Fractions containing dye-labeled peptide were pooled and diluted to final peptide concentrations of 1 mg/mL.
Hair samples were then treated according to Example 8, except that during treatment with peptide, hair was treated with a single dye-labeled peptide corresponding to SEQ ID NOs. 1 and 2-17. For each set of conditions, three separate straightening protocols were performed.
Fluorescence images were collected on a EVOS M7000 Imaging System (Thermo Fisher Scientific) using a Cy5 filter set. Images were collected using a 0.1 second exposure time at a light intensity of 0.0023. Following fluorescence measurements, hair samples were then washed with shampoo an additional 9 times, towel dried, and fluorescently imaged again.
Image files were processed as 16-bit grayscale images using ImageJ software. […] The average and standard deviation of fluorescence intensity in the remaining regions (corresponding to hair strands containing fluorescently labeled peptides) was then directly calculated.

Experiment [2] is described as follows: Hair straightening, treatment with lye and hydrogen peroxide (Example 2). To be noted: 1 mg/mL peptide; after 10 shampoo wash/dry cycles. The procedure:
(§1) Tresses of curly Brazilian hair were cut into ½ inch wide samples. The tresses were then washed with shampoo and allowed to air dry. The hair then soaked in a solution of sodium hydroxide pH 12 for 30 minutes at room temperature. After this time, the hair was rinsed with DI water. The hair was then blow dried under medium heat while gently pulling the hair into a straight shape. A flat iron was then applied to the hair at 400° F.
Six individual solutions of each designed keratin binding peptide corresponding to SEQ ID NO. 3 through SEQ ID NO. 8 were dissolved in DI water at a concentration of 1 mg/ml and then applied to individual hair samples until the hair sample was saturated, and the hair sample was allowed to sit for 30 minutes at room temperature. The hair sample was then blow dried under medium heat while gently pulling the hair into a straight shape. A flat iron was then applied to the hair at 400° F.
L'Oreal® Oreor Creme 40 volume developer was then applied to the hair samples until the hair sample was saturated, and then allowed to sit for 30 minutes at room temperature. The hair samples were then rinsed with DI water.
Each straightened hair sample was washed with shampoo and allowed to air dry, and this washing/drying procedure was repeated a total of 10 times. […] There was little identifiable difference in efficacy among the six peptides, although peptides corresponding to SEQ ID NO. 5, SEQ ID NO. 6, SEQ ID NO. 7 and SEQ ID NO. […] 3 and SEQ ID NO.4.

Experiment [3] is described as follows: Hair straightening, treatment with heat only (Example 1). To be noted: 1 mg/mL peptide; after 10 shampoo wash/dry cycles. The procedure: Tresses of curly Brazilian hair were cut into ½ inch wide samples. The tresses were then washed with shampoo and allowed to air dry. The hair was straightened using a flat iron at 460° F. Once the hair was visibly straight, the hair was wrapped tightly in aluminum foil. A flat iron was applied to a section of the wrapped hair by holding the flat iron to the section for 10 seconds. This process was repeated until all sections of the hair were flat ironed.
Six individual solutions of each peptide corresponding to SEQ ID NO. 3 through SEQ ID NO 8 were dissolved in de-ionized (“DI”) water at a concentration of about 1 milligram per milliliter (“mg/mL”) and then applied to separate hair samples until the hair sample was saturated. The saturated hair was allowed to sit for 1 hour at 37° C. The hair was then blow dried under medium heat while gently pulling the hair into a straight shape. A flat iron was then applied to the hair at 400° F.
The straightened hair was washed with shampoo and allowed to air dry, and this washing/drying procedure was repeated a total of 10 times. […] There was little identifiable difference in efficacy among the six designed keratin binding peptides, although peptides corresponding to SEQ ID NO. 5 SEQ ID NO. 6, SEQ ID NO. 7 and SEQ ID NO. […] 3 and SEQ ID NO.4.

Experiment [4] in a line: Hair straightening, treatment with lye and glucose oxidase (Example 3). The conditions noted are these: 1 mg/mL peptide, 30 minutes; NaOH pH 12, glucose oxidase/glucose fixation; after 10 shampoo wash/dry cycles; only slight waves remained. The procedure: as §1
A solution of the peptide corresponding to SEQ ID. NO. 8 in DI water at a concentration of 1 mg/mL was then applied to hair sample until the hair sample was saturated, and the hair was allowed to sit for 30 minutes at room temperature. The hair was then blow dried under medium heat while gently pulling the hair into a straight shape. A flat iron was then applied to the hair at 400° F.
(§2) A solution of glucose oxidase (2 mg/mL) and glucose (18 mg/mL) in 50 mM sodium phosphate buffer pH 5.8 was then applied to the hair until the hair was saturated, and the hair was allowed to sit for 30 minutes at room temperature. The hair was then rinsed with DI water.
(§3) The straightened hair was washed with shampoo and allowed to air dry, and this washing/drying procedure was repeated a total of 10 times.

Experiment [5] in a line: Hair straightening, treatment with ammonium thioglycolate and hydrogen peroxide (Example 6). To be noted: 1 mg/mL peptide, 30 minutes; ammonium thioglycolate 10% v/v pH 10, hydrogen peroxide 2% v/v; after 30 shampoo wash/dry cycles; treated samples with and without peptide. The procedure: Tresses of curly Brazilian hair were cut into ½ inch wide samples. The tresses were then washed with shampoo and allowed to air dry. The hair then soaked in a solution of ammonium thioglycolate (10% v/v) in sodium hydroxide pH 10 for 30 minutes at room temperature. After this time, the hair was rinsed with DI water. The hair was then blow dried under medium heat while gently pulling the hair into a straight shape. A flat iron was then applied to the hair at 400° F.
In some samples, a solution of the peptide corresponding to SEQ ID NO.8 in DI water at a concentration of 1 mg/mL was then applied to hair until the hair was saturated, and the hair was allowed to sit for 30 minutes at room temperature. In these samples, the hair was then blow dried under medium heat while gently pulling the hair into a straight shape. A flat iron was then applied to the hair at 400° F.
For all hair samples, a solution of hydrogen peroxide (2% v/v) was then applied to the hair until the hair was saturated, and the hair was allowed to sit for 30 minutes at room temperature. The hair was then rinsed with DI water.
The straightened hair was washed with shampoo and allowed to air dry, and this washing/drying procedure was repeated a total of 30 times.

The nature of experiment [6]: Hair straightening, treatment with glutathione reductase and hydrogen peroxide (Example 4). The conditions noted are these: 1 mg/mL peptide, 30 minutes; glutathione reductase/glutathione/NADP relaxation, 40 volume developer fixation; after 10 shampoo wash/dry cycles; only slight waves remained. The procedure: Tresses of curly Brazilian hair were cut into ½ inch wide samples. The tresses were then washed with shampoo and allowed to air dry. The hair then soaked in a solution of glutathione reductase (0.01 mg/mL), glutathione (100 mg/mL), and nicotinamide adenine dinucleotide phosphate (0.083 mg/mL) in 50 mM sodium phosphate buffer pH 8 for 30 minutes at room temperature. After this time, the hair was rinsed with DI water. The hair was then blow dried under medium heat while gently pulling the hair into a straight shape. A flat iron was then applied to the hair at 400° F.
A solution of a peptide corresponding to SEQ ID NO.8 in DI water at a concentration of 1 mg/mL was then applied to har until the hair was saturated, and the hair was allowed to sit for 30 minutes at room temperature. The hair was then blow dried under medium heat while gently pulling the hair into a straight shape. A flat iron was then applied to the hair at 400° F.
L'Oreal® Oreor Creme 40 volume developer was then applied to the hair until the hair was saturated, and the hair was allowed to sit for 30 minutes at room temperature. The hair was then rinsed with DI water.
as §3

The nature of experiment [7]: Hair straightening, treatment with glutathione and glucose oxidase (Example 5). To be noted: 1 mg/mL peptide, 30 minutes; glutathione pH 9 relaxation, glucose oxidase/glucose fixation; after 10 shampoo wash/dry cycles; only slight waves remained. The procedure: Tresses of curly Brazilian hair were cut into ½ inch wide samples. The tresses were then washed with shampoo and allowed to air dry. The hair then soaked in a solution of glutathione (100 mg/mL) in sodium hydroxide pH 9 for 30 minutes at room temperature. After this time, the hair was rinsed with DI water. The hair was then blow dried under medium heat while gently pulling the hair into a straight shape. A flat iron was then applied to the hair at 400° F.
A solution of the peptide corresponding to SEQ ID NO.8 in DI water at a concentration of 1 mg/mL was then applied to hair until the hair was saturated, and the hair was allowed to sit for 30 minutes at room temperature. The hair was then blow dried under medium heat while gently pulling the hair into a straight shape. A flat iron was then applied to the hair at 400° F.
as §2, §3

Consider “SEQ ID NO. 14: differs from SEQ ID NO. 6 in lacking the Q13C substitution (CGQCCHLQCCFCQYKKCELFPKC)”, for which the “change in fluorescence intensity between 1 and 10 shampoos (retention of peptide in hair)” value (“change” for short) in experiment [1] was “significant decrease”.
“SEQ ID NO. 7: cysteine-substituted peptide with Q13C; SEQ ID NO. 15 is the same without Q13C (CGCCCHLCCCFCCYKKCELFPKC) [cysteine-substituted peptide with Q13C; 15 is the same without Q13C]”: the “change” value in experiment [1] is “no statistically significant decrease”. Also, the “straightening efficiency compared among the six peptides (vs SEQ ID NO. 3 and SEQ ID NO. 4)” value in experiment [2] and in experiment [3] was “slightly higher straightening efficiency” throughout.
Turning to “SEQ ID NO. 11: Q13C substitution relative to SEQ ID NO. 1 plus 2 additional cysteine substitutions (QGQVQHLQCAFSCYKKCELFPK)”, the “change” value in experiment [1] is given as “no statistically significant decrease”.
Turning to “SEQ ID NO. 6: cysteine-substituted peptide with Q13C; SEQ ID NO. 14 is the same without Q13C (CGQCCHLQCCFCCYKKCELFPKC) [cysteine-substituted peptide with Q13C; 14 is the same without Q13C]”, the “change” value in experiment [1] was “no statistically significant decrease”. Also, the “straightening efficiency compared among the six peptides (vs SEQ ID NO. 3 and SEQ ID NO. 4)” value in experiment [2] and in experiment [3] was “slightly higher straightening efficiency” in each case.
“SEQ ID NO. 8: cysteine-substituted peptide with Q13C; SEQ ID NO. 16 is the same without Q13C (CGQVCHLQCAFSCYKKCELFPKC) [cysteine-substituted peptide with Q13C; 16 is the same without Q13C]”: the “change” value in experiment [1] was “no statistically significant decrease”. Moreover, the “hair straightening compared to untreated samples” value in experiment [4], in experiment [6] and in experiment [7] was “significantly straightened” in each case. For the same substance, in experiment [5], the “hair straightening compared to an untreated sample” value is on record as “significantly straightened”. The “straightening efficiency compared among the six peptides (vs SEQ ID NO. 3 and SEQ ID NO. 4)” value in experiment [2] and in experiment [3] was “slightly higher straightening efficiency” in each case.
Consider “SEQ ID NO. 4: Q13C substitution relative to SEQ ID NO. 1 plus 3 additional cysteine substitutions (QGQVCHLQCAFSCYKKCELFPK)”, for which, in experiment [1], the “change” value is given as “no statistically significant decrease”.
With “SEQ ID NO. 15: differs from SEQ ID NO. 7 in lacking Q13C; 10 cysteine substitutions, unique Q3C and/or Q8C (CGCCCHLCCCFCQYKKCELFPKC)”, in experiment [1], the “change” value is “strong retention”.
Take “SEQ ID NO. 5: designed keratin binding peptide with cysteine substitutions relative to SEQ ID NO: 1 (QGQCCHLQCCFSQYKKCELFPKC)”: the “straightening efficiency compared among the six peptides (vs SEQ ID NO. 3 and SEQ ID NO. 4)” value in experiment [2] and in experiment [3] was “slightly higher straightening efficiency” in each case.
Consider “SEQ ID NO. 16: differs from SEQ ID NO. 8 in lacking the Q13C substitution (CGQVCHLQCAFSQYKKCELFPKC)”, for which the “change” value in experiment [1] is given as “significant decrease”.
